# Assay results as given in patent publication US12077503B2, “Substituted cyclic amides and their use as herbicides” (FMC CORPORATION, priority 2015, dated 2024).
# How the values were obtained:
# Format in all cases: in vivo
# [1] = test system: pigweed (Amaranthus retroflexus); assay: Test A preemergence; conditions: Amaranthus retroflexus, pre-emergence, 240 h, 0 to 100 scale where 0 is no effect and 100 is complete control, read-out: Pigweed plant response rating
# [2] = test system: ragweed (common ragweed, Ambrosia elatior); assay: Test A preemergence; conditions: Ambrosia artemisiifolia, pre-emergence, 240 h, 0 to 100 scale where 0 is no effect and 100 is complete control, read-out: Ragweed plant response rating
# Outline: (§1)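 Greenhouse, ~10 d after spray; visual injury vs untreated controls, 0 = no effect, 100 = complete control. Preemergence: directed soil spray over planted seeds. Postemergence: plants 2–10 cm, 1–2 leaf stage. Loam/sand blend. Compound in non-phytotoxic solvent with surfactant.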
# [3] = test system: barnyardgrass (Echinochloa crus-galli); assay: Test A preemergence; conditions: Echinochloa crus-galli, pre-emergence, 240 h, 0 to 100 scale where 0 is no effect and 100 is complete control, read-out: Barnyardgrass plant response rating
# Outline: as §1
# [4] = test system: giant foxtail (Setaria faberii); assay: Test A preemergence; conditions: Setaria faberi, pre-emergence, 240 h, 0 to 100 scale where 0 is no effect and 100 is complete control, read-out: Foxtail, Giant plant response rating
# Outline: as §1
# [5] = test system: ryegrass, Italian (Italian ryegrass, Lolium multiflorum); assay: Test A preemergence; conditions: Lolium multiflorum, pre-emergence, 240 h, 0 to 100 scale where 0 is no effect and 100 is complete control, read-out: Ryegrass, Italian plant response rating
# Outline: as §1
# Kochia (Kochia scoparia) [6] = assay: Test A preemergence; conditions: Bassia scoparia, pre-emergence, 240 h, 0 to 100 scale where 0 is no effect and 100 is complete control, read-out: Kochia plant response rating
# Outline: as §1
# rice (Oryra sativa) = assay: Test B flooded paddy test; conditions: Oryza sativa, 250 g ai/ha, Flood; 0 to 100 scale where 0 is no effect and 100 is complete control; read-out: Rice plant response rating
# Outline: (§2)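 2-leaf plants; pots flooded 3 cm over soil; cpd added to paddy water; depth held; greenhouse 13–15 d; visual rating vs controls, 0 = no effect, 100 = complete control.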
# [7] = test system: sedge, umbrella (small-flower umbrella sedge, Cyperus difformis); assay: Test B flooded paddy test; conditions: Cyperus difformis, 250 g ai/ha, Flood; 0 to 100 scale where 0 is no effect and 100 is complete control; read-out: Sedge, Umbrella plant response rating
# Outline: as §2
# [8] = test system: barnyardgrass (Echinochloa crus-galli); assay: Test B flooded paddy test; conditions: Echinochloa crus-galli, 250 g ai/ha, Flood; 0 to 100 scale where 0 is no effect and 100 is complete control; read-out: Barnyardgrass plant response rating
# Outline: as §2
# [9] = test system: ducksalad (Heteranthera limosa); assay: Test B flooded paddy test; conditions: Heteranthera limosa, 250 g ai/ha, Flood; 0 to 100 scale where 0 is no effect and 100 is complete control; read-out: Ducksalad plant response rating
# Outline: as §2
# corn (Zea mays) = assay: Test A postemergence; conditions: Zea mays, post-emergence, 240 h
# Outline: as §1
# [10] = test system: pigweed (Amaranthus retroflexus); assay: Test A postemergence; conditions: Amaranthus retroflexus, post-emergence, 240 h, 125 g ai/ha, postemergence, visual injury vs untreated controls after approx. 10 d; 0 = no effect, 100 = complete control; read-out: Pigweed plant response rating (0 to 100 scale)
# Outline: as §1
# [11] = test system: ragweed (common ragweed, Ambrosia elatior); assay: Test A postemergence; conditions: Ambrosia artemisiifolia, post-emergence, 240 h, 125 g ai/ha, postemergence, visual injury vs untreated controls after approx. 10 d; 0 = no effect, 100 = complete control; read-out: Ragweed plant response rating (0 to 100 scale)
# Outline: as §1
# [12] = test system: barnyardgrass (Echinochloa crus-galli); assay: Test A postemergence; conditions: Echinochloa crus-galli, post-emergence, 240 h
# Outline: as §1
# [13] = test system: giant foxtail (Setaria faberii); assay: Test A postemergence; conditions: Setaria faberi, post-emergence, 240 h
# Outline: as §1
# [14] = test system: Galium (catchweed bedstraw, Galium aparine); assay: Test A postemergence; conditions: Galium, post-emergence, 240 h
# Outline: as §1
# [15] = test system: wheat (Triticum aestivum); assay: Test A postemergence; conditions: Triticum aestivum, post-emergence, 240 h, 125 g ai/ha, postemergence, visual injury vs untreated controls after approx. 10 d; 0 = no effect, 100 = complete control; read-out: Wheat plant response rating (0 to 100 scale)
# Outline: as §1
# [16] = test system: ryegrass, Italian (Italian ryegrass, Lolium multiflorum); assay: Test A postemergence; conditions: Lolium multiflorum, post-emergence, 240 h, 125 g ai/ha, postemergence, visual injury vs untreated controls after approx. 10 d; 0 = no effect, 100 = complete control; read-out: Ryegrass, Italian plant response rating (0 to 100 scale)
# Outline: as §1
# Kochia (Kochia scoparia) [17] = assay: Test A postemergence; conditions: Bassia scoparia, post-emergence, 240 h
# Outline: as §1
# [18] = test system: blackgrass (Alopecurus myosuroides); assay: Test A postemergence; conditions: Alopecurus myosuroides, post-emergence, 240 h
# Outline: as §1
# [19] = 125 g ai/ha, preemergence, visual injury rating, approximately 10 d
smiles,measurement,setting,value
COc1ccc(C(F)(F)F)cc1[C@H]1CN(C)C(=O)[C@@H]1C(=O)Nc1ccccc1F [Compound 1183],pest or weed control at 31 g/ha,"[1]; 31 g ai/ha, Preemergence",0%
same,pest or weed control at 125 g/ha,[1]; [19],0%
same,pest or weed control at 31 g/ha,"[2]; 31 g ai/ha, Preemergence",0%
same,pest or weed control at 125 g/ha,[2]; [19],0%
same,pest or weed control at 31 g/ha,"[3]; 31 g ai/ha, Preemergence",90%
same,pest or weed control at 125 g/ha,[3]; [19],90%
same,pest or weed control at 31 g/ha,"[4]; 31 g ai/ha, Preemergence",80%
same,pest or weed control at 125 g/ha,[4]; [19],90%
same,pest or weed control at 31 g/ha,"[5]; 31 g ai/ha, Preemergence",20%
same,pest or weed control at 125 g/ha,[5]; [19],50%
same,pest or weed control at 31 g/ha,"Kochia (Kochia scoparia) [6]; 31 g ai/ha, Preemergence",0%
same,pest or weed control at 125 g/ha,Kochia (Kochia scoparia) [6]; [19],0%
same,pest or weed control at 250 g/ha,rice (Oryra sativa),10%
same,pest or weed control at 250 g/ha,[7],0%
same,pest or weed control at 250 g/ha,[8],95%
same,pest or weed control at 250 g/ha,[9],95%
same,plant injury at 125 g/ha,"corn (Zea mays); 125 g ai/ha, postemergence, visual injury vs untreated controls after approx. 10 d, 0 = no effect, 100 = complete control, read-out: Corn plant response rating (0 to 100 scale)",60%
same,"Corn plant response rating (crop injury, 0 = no effect, 100 = complete kill) at 31 g/ha","corn (Zea mays); Postemergence, 31 g ai/ha, visual injury after approx. 10 d, 0 to 100 scale, 0 no effect, 100 complete control",30%
same,pest or weed control at 125 g/ha,[10],0%
same,pest or weed control at 125 g/ha,[11],0%
same,pest or weed control at 125 g/ha,"[12]; 125 g ai/ha, postemergence, visual injury vs untreated controls after approx. 10 d, 0 = no effect, 100 = complete control, read-out: Barnyardgrass plant response rating (0 to 100 scale)",90%
same,pest or weed control at 31 g/ha,"[12]; Postemergence, 31 g ai/ha, visual injury after approx. 10 d, 0 to 100 scale, 0 no effect, 100 complete control, read-out: Plant response rating, Barnyardgrass",80%
same,pest or weed control at 125 g/ha,"[13]; 125 g ai/ha, postemergence, visual injury vs untreated controls after approx. 10 d, 0 = no effect, 100 = complete control, read-out: Foxtail, Giant plant response rating (0 to 100 scale)",80%
same,pest or weed control at 31 g/ha,"[13]; Postemergence, 31 g ai/ha, visual injury after approx. 10 d, 0 to 100 scale, 0 no effect, 100 complete control, read-out: Plant response rating, Foxtail, Giant",70%
same,pest or weed control at 125 g/ha,"[14]; 125 g ai/ha, postemergence, visual injury vs untreated controls after approx. 10 d, 0 = no effect, 100 = complete control, read-out: Galium plant response rating (0 to 100 scale)",0%
same,pest or weed control at 31 g/ha,"[14]; Postemergence, 31 g ai/ha, visual injury after approx. 10 d, 0 to 100 scale, 0 no effect, 100 complete control, read-out: Plant response rating, Galium",0%
same,plant injury at 125 g/ha,[15],50%
same,pest or weed control at 125 g/ha,[16],50%
same,pest or weed control at 125 g/ha,"Kochia (Kochia scoparia) [17]; 125 g ai/ha, postemergence, visual injury vs untreated controls after approx. 10 d, 0 = no effect, 100 = complete control, read-out: Kochia plant response rating (0 to 100 scale)",0%
same,pest or weed control at 31 g/ha,"Kochia (Kochia scoparia) [17]; Postemergence, 31 g ai/ha, visual injury after approx. 10 d, 0 to 100 scale, 0 no effect, 100 complete control, read-out: Plant response rating, Kochia",0%
same,pest or weed control at 125 g/ha,"[18]; 125 g ai/ha, postemergence, visual injury vs untreated controls after approx. 10 d, 0 = no effect, 100 = complete control, read-out: Blackgrass plant response rating (0 to 100 scale)",50%
same,pest or weed control at 31 g/ha,"[18]; Postemergence, 31 g ai/ha, visual injury after approx. 10 d, 0 to 100 scale, 0 no effect, 100 complete control, read-out: Plant response rating, Blackgrass",0%
